Patent US11220504B2, “Pyrrolo[3,2-d] pyrimidine derivatives for the treatment of viral infections and other diseases” (JANSSEN SCIENCES IRELAND UNLIMITED COMPANY, priority 2012, dated 2022)

Key:
human TLR8 = target: T1, human TLR8 (Homo sapiens, UniProt Q9NR97); test: TLR8 cellular reporter assay (HEK293, NFκB-luc); format: cell-based; conditions: HEK293 cells transfected with CMV-TLR8 and NFκB-luc, 6 hours incubation; lowest effective concentration
T1 construct: expressed in transfected cells; host or cells: HEK293 cells, transient transfection with TLR8 plasmid and NFκB-luc plasmid
T1 sequence (Q9NR97 27-1041): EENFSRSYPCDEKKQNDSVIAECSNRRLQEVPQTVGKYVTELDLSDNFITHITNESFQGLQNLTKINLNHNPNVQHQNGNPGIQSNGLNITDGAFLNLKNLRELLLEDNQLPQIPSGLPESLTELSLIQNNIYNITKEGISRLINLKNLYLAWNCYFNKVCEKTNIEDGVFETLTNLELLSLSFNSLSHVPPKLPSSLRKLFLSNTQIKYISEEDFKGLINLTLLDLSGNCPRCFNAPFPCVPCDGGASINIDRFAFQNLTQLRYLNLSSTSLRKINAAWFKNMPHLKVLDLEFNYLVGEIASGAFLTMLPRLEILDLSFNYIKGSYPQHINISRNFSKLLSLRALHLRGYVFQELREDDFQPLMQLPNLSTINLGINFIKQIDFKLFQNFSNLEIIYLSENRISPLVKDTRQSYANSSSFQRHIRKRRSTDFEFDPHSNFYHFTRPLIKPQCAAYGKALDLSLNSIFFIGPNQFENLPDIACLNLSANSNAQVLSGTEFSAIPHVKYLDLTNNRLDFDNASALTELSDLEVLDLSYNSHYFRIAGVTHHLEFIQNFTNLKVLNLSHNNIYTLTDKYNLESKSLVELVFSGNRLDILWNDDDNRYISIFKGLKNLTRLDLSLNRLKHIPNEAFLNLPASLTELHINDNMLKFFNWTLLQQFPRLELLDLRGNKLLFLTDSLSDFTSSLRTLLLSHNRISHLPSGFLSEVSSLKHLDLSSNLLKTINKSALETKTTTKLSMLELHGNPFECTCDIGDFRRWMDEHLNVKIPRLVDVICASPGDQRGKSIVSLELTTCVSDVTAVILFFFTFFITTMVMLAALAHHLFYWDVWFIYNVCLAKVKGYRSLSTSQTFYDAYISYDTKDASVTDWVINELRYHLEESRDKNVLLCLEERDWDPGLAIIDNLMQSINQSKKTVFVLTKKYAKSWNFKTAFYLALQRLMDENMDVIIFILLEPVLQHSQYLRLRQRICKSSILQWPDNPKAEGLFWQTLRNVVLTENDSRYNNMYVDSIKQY
Experimental: (§1) The ability of compounds to activate human TLR7 and/or TLR8 was assessed in a cellular reporter assay using HEK293 cells transiently transfected with a TLR7 or TLR8 expression vector and NFκB-luc reporter construct.
(§2) Briefly, HEK293 cells were grown in culture medium (DMEM supplemented with 10% FCS and 2 mM Glutamine). […] Thirty microliters of cells were then dispensed into each well in 384-well plates, where 10 μL of compound in 4% DMSO was already present. Following 6 hours incubation at 37° C., 5% CO2, the luciferase activity was determined by adding 15 μL of Steady Lite Plus substrate (Perkin Elmer) to each well and readout performed on a ViewLux ultraHTS microplate imager (Perkin Elmer). Dose response curves were generated from measurements performed in quadruplicates.

[1] = tested on: interferon-stimulated responsive elements (ISRE); test: Activation of ISRE promoter elements by conditioned media from PBMC (HEK-ISREluc); format: cell-based, human; conditions: Homo sapiens; conditioned media from PBMC transferred to HEK-ISREluc cells, 24 hours; lowest effective concentration; read-out: PBMC LEC
Experimental: The potential of compounds to induce IFN-I was also evaluated by measuring the activation of interferon-stimulated responsive elements (ISRE) by conditioned media from PBMC. The ISRE element of sequence […] (SEQ. ID NO:1) is highly responsive to the STAT1-STAT2-IRF 9 transcription factor, activated upon binding of IFN-I to their receptor IFNAR (Clontech, PT3372-5W). […] A HEK293 cell line stably transfected with pISRE-Luc (HEK-ISREluc) was established to profile of the conditioned PBMC cell culture media.
Briefly, PBMCs were prepared from buffy coats of at least two donors using a standard Ficoll centrifugation protocol. Isolated PBMCs were resuspended in RPMI medium supplemented with 10% human AB serum and 2×10^5 cells/well were dispensed into 384-well plates containing compounds (70 μL total volume). After overnight incubation, 10 μL of supernatant was transferred to 384-well plates containing 5×10^3 HEK-ISREluc cells/well in 30 μL (plated the day before). Following 24 hours of incubation, activation of the ISRE elements was measured by assaying luciferase activity using 40 μL/well Steady Lite Plus substrate (Perkin Elmer) and measured with ViewLux ultraHTS microplate imager (Perkin Elmer). The stimulating activity of each compound on the HEK-ISREluc cells was reported as LEC value, defined as the compound concentration applied to the PBMCs resulting in a luciferase activity at least two fold above the standard deviation of the assay. The LEC in turn indicates the degree of ISRE activation on transfer of a defined amount of PBMC culture medium. Recombinant interferon α-2a (Roferon-A) was used as a standard control compound.

human TLR7 = target: T2, human TLR7 (Homo sapiens, UniProt Q9NYK1); test: TLR7 cellular reporter assay (HEK293, NFκB-luc); format: cell-based; conditions: HEK293 cells transfected with CMV-TLR7 and NFκB-luc, 6 hours incubation; lowest effective concentration
T2 construct: expressed in transfected cells; host or cells: HEK293 cells, transient transfection with CMV-TLR7 plasmid and NFκB-luc plasmid
T2 sequence (Q9NYK1 27-1049): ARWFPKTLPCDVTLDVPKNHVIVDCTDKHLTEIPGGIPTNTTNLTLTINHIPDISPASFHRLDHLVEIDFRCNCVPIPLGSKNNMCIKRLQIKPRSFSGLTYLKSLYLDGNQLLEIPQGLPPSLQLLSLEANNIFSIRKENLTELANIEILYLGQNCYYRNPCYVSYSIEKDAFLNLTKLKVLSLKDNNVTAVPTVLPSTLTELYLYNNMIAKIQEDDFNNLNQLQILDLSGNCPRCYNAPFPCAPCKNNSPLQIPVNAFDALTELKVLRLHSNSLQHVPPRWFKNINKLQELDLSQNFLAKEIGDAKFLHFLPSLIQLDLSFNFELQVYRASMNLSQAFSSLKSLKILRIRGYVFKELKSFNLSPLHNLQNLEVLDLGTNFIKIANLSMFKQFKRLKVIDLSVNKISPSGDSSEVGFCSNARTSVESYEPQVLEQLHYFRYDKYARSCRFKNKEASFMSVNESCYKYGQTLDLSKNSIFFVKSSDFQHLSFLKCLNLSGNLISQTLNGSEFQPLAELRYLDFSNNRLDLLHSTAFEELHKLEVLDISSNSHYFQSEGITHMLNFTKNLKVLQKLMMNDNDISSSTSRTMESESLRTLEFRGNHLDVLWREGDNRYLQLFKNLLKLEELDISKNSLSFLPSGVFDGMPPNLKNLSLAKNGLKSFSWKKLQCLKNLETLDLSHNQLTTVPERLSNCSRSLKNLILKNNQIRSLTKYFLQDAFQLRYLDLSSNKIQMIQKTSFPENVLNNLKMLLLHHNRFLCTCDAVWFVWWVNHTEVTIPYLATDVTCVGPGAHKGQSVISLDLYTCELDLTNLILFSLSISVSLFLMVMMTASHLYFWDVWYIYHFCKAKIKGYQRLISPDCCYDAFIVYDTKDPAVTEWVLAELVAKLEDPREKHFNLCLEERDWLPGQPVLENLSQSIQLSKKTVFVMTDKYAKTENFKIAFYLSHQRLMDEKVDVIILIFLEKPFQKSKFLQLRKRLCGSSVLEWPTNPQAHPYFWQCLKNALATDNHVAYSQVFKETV
Experimental: as §1, §2

| Compound | TLR8 LEC (human TLR8) [µM] | minimal effective concentration [1] [µM] | TLR7 LEC (human TLR7) [µM] |
| --- | --- | --- | --- |
| COCCn1ccc2nc(N)nc(N[C@H](C)c3ccccn3)c21 (single isomer, unassigned) [Compound 151] | >25 | 2.58 | 12.8 |
| COCCn1ccc2nc(N)nc(N[C@@H](C)c3ccccn3)c21 (single isomer, unassigned) [Compound 152] | >25 | 0.142 | 0.73 |
| C[C@@H](Nc1nc(N)nc2ccn(Cc3ccccn3)c12)c1ccccn1 (single isomer, unassigned) [Compound 194] | >25 |  |  |
| C[C@H](Nc1nc(N)nc2ccn(Cc3ccccn3)c12)c1ccccn1 (single isomer, unassigned) [Compound 195] | >25 |  |  |
| CCCCNc1nc(N)nc2ccn(Cc3ccccc3Oc3ccccc3)c12 [Compound 2] | >25 | 0.6 | 0.50 |
| CCCCNc1nc(N)nc2ccn(Cc3cc(F)ccc3Br)c12 [Compound 3] | >25 | 1.2 | 2.6 |
| CCCCNc1nc(N)nc2ccn(CCOC)c12 [Compound 4] | 13.5 | 0.4 | 0.60 |
| CCCCNc1nc(N)nc2ccn(Cc3cccc(F)c3)c12 [Compound 5] | >25 | 0.2 | 0.30 |
| CCCCNc1nc(N)nc2ccn(Cc3ccccc3Br)c12 [Compound 6] | >25 | 0.7 | 1.3 |
| Cc1cc(CNc2nc(N)nc3ccn(Cc4ccccn4)c23)no1 [Compound 89] | >25 |  |  |
| COCCNc1nc(N)nc2ccn(Cc3ccccn3)c12 [Compound 119] | >25 |  |  |
| Cc1cc(CNc2nc(N)nc3ccn(Cc4ccc(C(F)(F)F)cn4)c23)no1 [Compound 122] | >25 |  |  |
| COc1ccc(Cn2ccc3nc(N)nc(NCc4cc(C)on4)c32)nc1OC [Compound 124] | >22 |  |  |
| Cc1cc(CNc2nc(N)nc3ccn(Cc4ncccc4F)c23)no1 [Compound 125] | >25 |  |  |
| Nc1nc(NCc2cc(C3CC3)on2)c2c(ccn2Cc2ccccn2)n1 [Compound 126] | >25 |  |  |
| CC(C)c1cc(CNc2nc(N)nc3ccn(Cc4ccccn4)c23)no1 [Compound 127] | >25 |  |  |
| COc1cccc(Cn2ccc3nc(N)nc(NCc4cc(C)on4)c32)n1 [Compound 131] | 24.6 |  |  |
| Nc1nc(NCc2nccs2)c2c(ccn2Cc2ccccn2)n1 [Compound 136] | >25 |  |  |
| COCCCNc1nc(N)nc2ccn(Cc3ccccn3)c12 [Compound 138] | >25 |  |  |

| Compound | TLR8 LEC (human TLR8) [µM] | minimal effective concentration [1] [µM] | TLR7 LEC (human TLR7) [µM] |
| --- | --- | --- | --- |
| CCOCCNc1nc(N)nc2ccn(Cc3ccccn3)c12 [Compound 140] | >25 |  |  |
| CCC(O)CNc1nc(N)nc2ccn(Cc3ccccn3)c12 (centres unmarked) [Compound 141] | >25 |  |  |
| Nc1nc(NCc2ncco2)c2c(ccn2Cc2ccccn2)n1 [Compound 142] | >25 |  |  |
| Cc1cc(CNc2nc(N)nc3ccn(Cc4ccc(F)cn4)c23)no1 [Compound 144] | >25 |  |  |
| Cc1cc(CNc2nc(N)nc3ccn(Cc4cc(C(F)(F)F)ccn4)c23)no1 [Compound 145] | >25 |  |  |
| Nc1nc(NCc2ccon2)c2c(ccn2Cc2ccccn2)n1 [Compound 155] | >25 |  |  |
| Cc1cc(CNc2nc(N)nc3ccn(Cc4ncccc4Cl)c23)no1 [Compound 156] | >25 |  |  |
| Cc1cc(CNc2nc(N)nc3ccn(Cc4cc(Cl)ccn4)c23)no1 [Compound 158] | >25 |  |  |
| COCCNc1nc(N)nc2ccn(CC(=O)N(C)C)c12 [Compound 166] |  |  | 4.88 |
| COc1cccnc1Cn1ccc2nc(N)nc(NCc3cc(C)on3)c21 [Compound 170] | >25 |  |  |
| COc1ccc(Cn2ccc3nc(N)nc(NCc4cc(C)on4)c32)nc1 [Compound 171] | >25 |  | 0.02 |
| Cc1nc(CNc2nc(N)nc3ccn(Cc4ccccn4)c23)cs1 [Compound 174] | >25 |  |  |
| Cc1cc(CNc2nc(N)nc3ccn(Cc4ccccn4)c23)on1 [Compound 184] | >25 |  |  |
| Cc1ccc(CNc2nc(N)nc3ccn(Cc4ccccn4)c23)nc1 [Compound 189] | >25 |  |  |
| CC(Nc1nc(N)nc2ccn(Cc3ccccn3)c12)c1ccccn1 (centres unmarked) [Compound 190] | >25 |  |  |
| Cc1cnc(CNc2nc(N)nc3ccn(Cc4ccccn4)c23)o1 [Compound 191] | >25 |  |  |
| Cc1cnc(CNc2nc(N)nc3ccn(Cc4ccccn4)c23)s1 [Compound 207] | 23 |  |  |
| Cc1coc(CNc2nc(N)nc3ccn(Cc4ccccn4)c23)n1 [Compound 214] | >25 |  |  |
| Cc1nnc(CNc2nc(N)nc3ccn(Cc4ccccn4)c23)o1 [Compound 216] | >25 |  |  |
